Test results from patent US20250204535A1, “Rodenticide” (priority 2022, published 2025).
Where no end group is shown, it is not given here.

Columns and labels:
Assay type in all cases: cell-based
[1] = test system: Human IPSC-derived cardiomyocytes; assay: Screening synthetic peptides for alterations to human IPSC-derived cardiomyocyte beat rates; conditions: 2 h; dose not stated in the sentence (no increase at 0.1, 1 and 10 μg/ml)
Procedure: The baseline beat rate of neonatal rat and human IPSC-derived cardiomyocytes to be treated with the three synthetic fractions were determined by video microscopy of each well in triplicate using a microscope camera. Average beats/min were calculated from the triplicate readings of three separate wells (n=9). Aliquots of each peptide were taken to treat neonatal rat cardiomyocyte cells at doses of 100, 10, 1 and 0.1 μg/ml. Cells were returned to a humidified incubator at 37° C., 5% CO2 for 2 h. After 2 h the beat rate of the treated cardiomyocyte cells was reassessed using the same method used to obtain the pre-dosing beat data. This process was repeated 24 h after the addition of the synthetic peptides.

[2] = test system: neonatal rat cardiac fibroblast cells; assay: Screening purified venom fractions for rat cardiac fibroblast toxicity (resazurin); conditions: neonatal rat cardiac fibroblasts
Procedure: Hearts were collected from euthanised 1-2-day old neonatal rat pups and transferred into filter sterilised ice-cold Hanks balanced salt solution (HBSS) containing 2% Pen-strep. Hearts were washed in the HBSS, any non-heart tissue removed and then cut into 1-3 mm pieces and placed in 40 ml filter sterilised, ice cold 0.1% trypsin/HBSS. The heart pieces in trypsin were place in a large ice bucket and incubated overnight at 4° C. on a rocker with gentle agitation to allow the tissue to digest.
The following day, all trypsin was aspirated from the tissue and the tissue transferred evenly into 2 ml Eppendorf tubes. The tissue was then digested further using a 37° C. 1 mg/ml collagenase/HBSS (filter sterilised) solution. For each collagenase digestion, 2 ml of enzyme buffer was added to all Eppendorf tubes and the tubes incubated in a 37° C. heating block for 2 mins with 400 rpm agitation. The supernatant from the first two digestions was discarded. After each of the following digestion steps, the tissue was gently triturated using a pipette to release cells. Once trituration was complete the supernatant was retained, added to a tube containing 10 ml cell culture media and stored on ice.
All cell containing supernatants were filtered through a 250 μm cell strainer to remove any potentially undigested tissue and myocytes separated from cardiac fibroblast by spinning the supernatant at 1800 g for 45 mins through a Percoll gradient. […]
Neonatal rat cardiomyocytes and cardiac fibroblasts were treated with purified venom fractions suspected of being cardiotoxins at doses of 12.5, 7.5, 6 μg/ml, with rat cardiomyocytes being treated at additional concentrations of 3.5, 2.5, 1 and 0.5 μg/ml for 2 hs in a humidified incubator at 37° C., 5% CO2. […] The change in fluorescence of the resazurin dye was monitored over a 5 h timeframe using a BMG Fluostar plate reader. Percent inhibition of both cell types in response to each fraction at each dose were calculated and plotted graphically.

[3] = test system: Neonatal rat cardiomyocytes; assay: Screening purified venom fractions for alterations to cardiomyocyte beat rates; conditions: for Highest Achieved Fold Increases in Beat Rate: 1 h; for fold increases to beat rate: dose of 6 μg/ml
Procedure: Neonatal rat cardiomyocytes were isolated as via standard protocol and seeded at a density of 100,000 cells/96 well. Once myocyte cultures were beating spontaneously in uniform sheets, they were videoed well-by-well using a microscope camera to determine pre-dose beat rates/min. […] Cells were incubated in each fraction in a humidified incubator at 37° C., 5% CO2 for 1 h. After 1 h videos of the cells were re-recorded to obtain the post-dosing beat rate/minute. Fold changes in beat frequency were calculated for each dosed well pair.

[4] = test system: rat neonatal cardiomyocyte cells; conditions: 37, 60, 80, 100° C.; 6 μg/ml; rat cardiomyocytes; FIG. 4
Procedure: Thermal stability of the six lead fractions was investigated. Aliquots of each fraction were heated in a heat block to 37° C. (unheated), 60° C., 80° C. and 100° C. before being used to treat rat neonatal cardiomyocyte cells at a dose of 6 μg/ml. Cardiomyocyte toxicity was assessed after 24 hrs of dosing at each temperature against a similar aliquot of each fraction that had been unheated before dosing. After 24 h, 160 μM Resazurin dye was added to all cells and the change in cardiomyocyte cell viability/metabolism monitored every hour up to 5 h post dye addition. An additional measurement was recorded 24 hs after the dye had been added.

[5] = test system: Human IPSC-derived cardiomyocytes; assay: Screening synthetic peptides for human IPSC-derived cardiomyocyte toxicity (resazurin, 24 h); conditions: 10 μg/ml, toxicity control
Procedure: (§1) Human IPSC-derived cardiomyocytes were purchased from Axol Biosciences and cultured as via their standard methodology. Briefly, cells were recovered from liquid nitrogen storage when required and the cells transferred dropwise into 10 ml of pre-warmed (37° C.) plating media (cardiomyocyte maintenance media+10% FCS+10 μM ROCK inhibitor). Cells were centrifuged at 200×g for 5 mins at room temperature. The supernatant was aspirated from the cell pellet and the cell pellet gently resuspended in 1 ml plating media. Cells were counted using a haemocytometer and trypan blue staining. Cells were plated at a seeding density of 10-20,000 cells/well in fibronectin pre-coated 384 well plates. Cells were incubated at 37° C., 5% CO2 in a humidified incubator overnight before the plating media was removed the following day and replace with fresh maintenance media (No FCS, no ROCK inhibitor). Partial media changes were performed every 2-days until cells formed a single continuous sheet of spontaneously beating cardiomyocytes (7-10 day in culture).
(§2) Rat neonatal cardiomyocytes, Embryonic chick cardiomyocytes, human IPSC-derived cardiomyocytes and rat cardiac fibroblast were cultured. […] After 24 h Resazurin dye was added to each well at a final concentration of 160 μM and the change in fluorescence of the dye monitored and recorded over a 24 h time period.

[6] = test system: Embryonic chick cardiomyocytes; assay: Screening synthetic peptides for embryonic chick cardiomyocyte toxicity (resazurin, 24 h); conditions: 10 μg/ml, toxicity control
Procedure: Hearts were collected from euthanised 12-13 day old embryonic chicks and transferred into filter sterilized ice-cold hanks balanced salt solution (HBSS) containing 2% Pen-strep. Hearts were washed in the HBSS to remove blood, any non-heart tissue removed and then cut into 1-3 mm pieces and placed in 40 ml filter sterilized, ice cold 0.05% trypsin/HBSS. The heart pieces in trypsin were place in a large ice bucket and incubated for 1 h on a rocker with gentle agitation to allow the tissue to digest.
All trypsin was aspirated from the tissue and discarded, and the tissue transferred evenly into 2 ml Eppendorf tubes. The tissue was then digested further using a 1 mg/ml Collagenase II/0.1% Trypsin/HBSS (filter sterilized) solution. For each digestion, 2 ml of enzyme buffer was added to all Eppendorf tubes and the tubes incubated in a 37° C. heating block for 3 mins with 400 rpm agitation. The supernatant from the first two digestions was discarded. After each of the following digestion steps, the tissue was gently triturated using a Pasteur pipette to release cells. […]
as §2

[7] = test system: Human IPSC-derived cardiomyocytes; assay: Six lead fractions: toxicity to human IPSC-derived cardiomyocytes (resazurin); conditions: 3.5 μg/ml
Procedure: as §1
Once beating spontaneously, cells were treated with the six lead fractions diluted in maintenance media to final working concentrations of 7.5, 6, 3.5, 2.5 and 1 μg/ml. 30 μl of each fraction dilution was added to triplicate wells of cells and incubated for 2 h at 37° C., 5% CO2 in a humidified incubator. After 2 h, resazurin dye at a final working concentration of 160 μM were added to all wells and the change in fluorescence of the plate monitored over a 5 h timeframe using a BMG Labtech Fluostar plate reader. Percent toxicity was calculated from triplicate wells at each dose and plotted graphically.
Human IPSC derived cardiomyocytes were dosed in triplicate with a serial dilution of each of the six venom fractions (7.5, 6, 3.5, 2.5 and 1 μg/ml) for 2 hs at 37° C., 5% CO2 before resazurin dye was added and the change in colour and fluorescence monitored for the following 5 hrs. Percentage toxicity was calculated for each fraction at all doses and plotted graphically (FIG. 3).

Substance	increase to the beat rate of human cardiomyocytes over pre-dosing beat rate [1] [fold]	doses showing cardiac fibroblast toxicity [2] [µg/mL]	Highest Achieved Fold Increases in Beat Rate ([3]; Dose 1 μg/ml) [fold]	fold increases to beat rate [3]	thermal stability (change in cytotoxic activity after heating) [4]	toxicity against human IPSC-derived cardiomyocytes [5]	toxicity against embryonic chick cardiomyocytes [6]	Highest Achieved Fold Increases in Beat Rate ([3]; Dose 6 μg/ml) [fold]	toxicity in human IPSC-derived cells compared to rodent cardiomyocytes [7]
LKCNKLIPLAYKT [Synthetic peptide 2]	1.5	–	–	–	–	–	–	–	–
N.nig_I19_R4 (LKCNKLIPIAYKTCPEGKNLCYKMMLASKKMVPVKRGCIDVCPKDSALVKYVCCSTDRCN)	–	12.5	6.25	greater than 5.5 fold	no significant changes in the activity	≈ 90%	≈ 90%	–	–
N.nka_I18_R4 (LKCNKLIPLAYKTCPAGKDLCYKMYMVSDKTVPVKRGCIDVCPKNSLLVKYECCNTDRCN)	–	–	–	greater than 7 fold	no significant changes in the activity	≈ 90%	≈ 90%	7.00	reduction in toxicity
